Key:
[1] = tested on: rodent GSK3β homologs; conditions: cited from earlier work
[2] = tested on: hPSCs; assay: Toxicity of KSR-protocol small molecule concentrations in E6 differentiation; assay type: cell-based, human; conditions: original KSR-protocol concentration used in E6
Description: To transition these protocols into the more defined E6 media, we adapted hPSCs in E8 for multiple passages and simply replaced the KSR-based medium with an E6 based differentiation while maintaining factors and concentrations as described previously to trigger the 4 major ectodermal lineages (FIG. 9A). […] After determining an optimal non-toxic concentration for each of the small molecules we observed that NE formation under E6 conditions was equivalent to that obtained with KSR-based conditions. […] We compared the efficiency of generating PAX6 positive cells using either no small molecules, using dSMADi or using the single TGFβ inhibitor SB431542 (SB). We found robust PAX6 expression in the absence of dSMADi (˜40% of total cells on day 12 post induction). However, the percentage of cells expressing PAX6 was further improved upon addition of SB or dSMADi to nearly 90% and 80%, respectively (FIGS. 1E and 9B).

[3] = tested on: SIX1 placode cells; assay: Trigeminal placode induction by Wnt activation pulse; assay type: cell-based, human; conditions: additional pulse after the BMP pulse
Method: (§1) All differentiations starting from E8 were dissociated into single cells using EDTA and replated at high density in E8 with the ROCK inhibitor (Tocris). Cells were typically seeded at a density of 200,000 cells/cm^2 on Matrigel coated dishes. Switching from E8 to E6 triggered differentiations (i.e. d0). Neuroectoderm (NE) formation was generated by culturing the cells in E6 with […] and 500 nM LDN until d12. Neural Crest (NC) was first treated with […], 600 nM CHIR and 1 ng/ml BMP4 from d0-d2. At d2, cells were maintained in […] with 1.5 uM CHIR until d12. Lens placode was first treated with […] and 5 ng/ml BMP4 from d0-d2. At d2, cells were maintained in […] with 100 ng/ml FGF2 until d12. Trigeminal placode was first treated with […] and 5 ng/ml BMP4 from d0-d2. At d2, CHIR was added to the SB and BMP4 until d4. Finally, non-neural ectoderm (NNE) was treated with 10 nM SB, 10 nM SU5402 and 20 ng/ml BMP4 until d12.

[4] = tested on: human pluripotent stem cells; assay: Neuroectoderm induction in E6 media, PAX6 positive cells (PAX6::H2B-GFP reporter); assay type: cell-based; conditions: day 12 post induction, without small molecules ~40%
Method: as §1, with “H9 ESCs (WA09) and modified reporter lines (passage 40-70) were cultured in the Knockout Serum Replacement (KSR) (Life Technologies) based media (DMEM-F12, 20% KSR, L-glutamate and 10 ng/ml FGF2) on mouse embryonic fibroblast feeders. KSR hPSCs were directly transferred to the E8 media (Life Technologies) coated with Vitronectin and adapted for 4-5 passages before differentiations were performed. KSR based differentiations were performed as previously described, neuroectoderm and neural crest (Mica et al., 2013), and placode and non-neural ectoderm ([…] et al., 2013). All” for “All”, “At d2, CHIR was added to the SB and BMP4 until d4. Finally, non-neural ectoderm (NNE) was treated with 10 nM SB, 10 nM SU5402 and 20 ng/ml BMP4 until d12.” left out

[5] = tested on: hPSC; assay: Cranial placode induction in E6 media, SIX1 positive cells, FGF addition; assay type: cell-based, human; conditions: added to E6 culture comprising SB431542 and BMP
Method: as §1

[6] = tested on: Six1::H2B-GFP reporter line; assay: LOPAC small molecule screen and validation for enhanced CP induction; conditions: CP protocol after the addition of FGF2
Method: All differentiations starting from E8 were dissociated into single cells using EDTA and replated at high density in E8 with the ROCK inhibitor (Tocris). Cells were typically seeded at a density of 200,000 cells/cm^2 on Matrigel coated dishes. Switching from E8 to E6 triggered differentiations (i.e. d0). Neuroectoderm (NE) formation was generated by culturing the cells in E6 with 10 nM SB and 500 nM LDN until d12. Neural Crest (NC) was first treated with 10 nM SB, 600 nM CHIR and 1 ng/ml BMP4 from d0-d2. […] Lens placode was first treated with 10 nM SB and 5 ng/ml BMP4 from d0-d2. At d2, cells were maintained in 10 nM SB with 100 ng/ml FGF2 until d12. Trigeminal placode was first treated with 10 nM SB and 5 ng/ml BMP4 from d0-d2. At d2, CHIR was added to the SB and BMP4 until d4. Finally, non-neural ectoderm (NNE) was treated with 10 nM SB, 10 nM SU5402 and 20 ng/ml BMP4 until d12.

**Q.** With `Cc1c[nH]c(-c2cnc(NCCNc3ccc(C#N)cn3)nc2-c2ccc(Cl)cc2Cl)n1` [CHIR99021, 6-(2-(4-(2,4-dichlorophenyl)-5-(4-methyl-1H-imidazol-2-yl)pyrimidin-2-ylamino)ethylamino)nicotinonitrile] as the compound, how does the “IC50 values against rodent GSK3β homologs” value [1] read?
**A.** The value was “nanomolar”.

**Q.** And the “cell killing during differentiation” value [2]?
**A.** The value was “effectively killed the cells”.

**Q.** And the “PAX3 expression in SIX1 placode cells” value [3]?
**A.** Its value is “capable of triggering PAX3 expression”.

**Q.** For `NC(=O)c1ccc(-c2nc(-c3ccc4c(c3)OCO4)c(-c3ccccn3)[nH]2)cc1` [SB431542, 4-[4-(1,3-benzodioxol-5-yl)-5-(2-pyridinyl)-1H-imidazol-2-yl]-benzamide], which “percentage of cells expressing PAX6” value [4] is on record?
**A.** The value was roughly 90%.

**Q.** For FGF2: activator of FGF signaling, which “SIX1 positive CP cells” value [5] is on record?
**A.** The value was roughly 50%.

**Q.** What about the Six1 positive cells [6] of the same compound?
**A.** Its Six1 positive cells is 34%.

Source: patent publication US11959104B2, “Methods of differentiating stem cell-derived ectodermal lineage precursors” (MEMORIAL SLOAN-KETTERING CANCER CENTER, priority 2016, dated 2024)
